Reference: ChEMBL document CHEMBL2021819, “CoA Adducts of 4-Oxo-4-Phenylbut-2-enoates: Inhibitors of MenB from the M. tuberculosis Menaquinone Biosynthesis Pathway” (ACS Med Chem Lett, 2011)
In brackets after ≈: the same amount, converted by molar mass. Activity calls are given as the source filed them. No cut-off for these calls is given here.

How the values were obtained:
[1] = biological target: T1, 1,4-dihydroxy-2-naphthoyl-CoA synthase (Mycobacterium tuberculosis) (UniProt P9WNP5); test: Inhibition of Mycobacterium tuberculosis MenB expressed in Escherichia coli BL21 (DE3) assessed as formation of DHNA-CoA from OSB-CoA at 50 uM by enzyme coupled-assay in presence of Escherichia coli MenE
T1 sequence (whole entry): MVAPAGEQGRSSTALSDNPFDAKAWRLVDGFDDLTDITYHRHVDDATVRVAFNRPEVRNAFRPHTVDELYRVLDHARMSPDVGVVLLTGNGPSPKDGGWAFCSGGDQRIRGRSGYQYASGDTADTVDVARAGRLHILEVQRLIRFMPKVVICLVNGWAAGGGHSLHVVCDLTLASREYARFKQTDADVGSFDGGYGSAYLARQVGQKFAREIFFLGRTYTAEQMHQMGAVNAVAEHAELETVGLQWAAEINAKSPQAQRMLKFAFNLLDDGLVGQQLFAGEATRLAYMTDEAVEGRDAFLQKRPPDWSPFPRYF

[2] = Chemical stability of the compound at pH 7.4; type: physicochemical; details: buffer
[3] = biological target: T2, 1,4-dihydroxy-2-naphthoyl-CoA synthase (Mycobacterium tuberculosis, UniProt P9WNP5); test: Inhibition of Mycobacterium tuberculosis MenB expressed in Escherichia coli BL21 (DE3) assessed as formation of DHNA-CoA from OSB-CoA by enzyme coupled-assay in presence of Escherichia coli MenE preincubated for 1 hr
T2 sequence (P9WNP5 whole entry): T1 sequence (whole entry)

[4] = Half life of the compound at pH 7.4; type: physicochemical
[5] = biological target: T2, 1,4-dihydroxy-2-naphthoyl-CoA synthase; test: Inhibition of Mycobacterium tuberculosis MenB expressed in Escherichia coli BL21 (DE3) assessed as formation of DHNA-CoA from OSB-CoA by enzyme coupled-assay in presence of Escherichia coli MenE
[6] = tested on: Mycobacterium tuberculosis; test: Antimycobacterial activity against Mycobacterium tuberculosis H37Rv after 5 to 7 days under […] condition by microplate dilution assay; type: functional
[7] = biological target: T2, 1,4-dihydroxy-2-naphthoyl-CoA synthase; test: Non-competitive inhibition of Mycobacterium tuberculosis MenB expressed in Escherichia coli BL21 (DE3) by Lineweaver-Burk plot analysis
[8] = biological target: T2, 1,4-dihydroxy-2-naphthoyl-CoA synthase; test: Inhibition of Mycobacterium tuberculosis MenB expressed in Escherichia coli BL21 (DE3) by Lineweaver-Burk plot analysis
[9] = Selectivity index, ratio of cytotoxicity against african green monkey Vero cells to MIC for Mycobacterium tuberculosis H37Rv; type: functional
[10] = tested on: Mycobacterium tuberculosis; test: Antibacterial activity against non-replicating Mycobacterium tuberculosis H37Rv by low oxygen recovery assay; type: functional

Compound: C[C@H](NC(C(=O)O)C(F)(F)C(=O)c1ccc(Cl)cc1)c1ccccc1 (stereo partly drawn)
- inhibition [1]: inactive
- Stability [2]: Stable

Compound: O=C(CC(NC(=O)c1ccccc1)C(=O)O)c1ccc(Cl)cc1 (stereo not drawn)
- inhibition [1]: inactive
- Stability [2]: Stable

Compound: CC(C(=O)c1ccc(Cl)cc1)C(N[C@@H](C)c1ccccc1)C(=O)O (stereo partly drawn)
- inhibition [1]: Active
- Stability [2]: Stable

Compound: O=C(CC1N=C(c2ccccc2)OC1=O)c1ccc(Cl)cc1 (stereo not drawn)
- inhibition [1]: inactive
- Stability [2]: Stable

Compound: C[C@H](NC(CC(=O)c1ccccc1C(F)(F)F)C(=O)O)c1ccccc1 (stereo partly drawn)
- IC50 [3]: 3200 nM
- half-life [4]: 0.2 h
- IC50 [5]: > 120000 nM
- MIC [6]: 25 µg/mL (≈ 68.4 µM)

Compound: CC(C)(COP(=O)(O)OP(=O)(O)OC[C@H]1O[C@@H](n2cnc3c(N)ncnc32)[C@H](O)[C@@H]1OP(=O)(O)O)[C@@H](O)C(=O)NCCC(=O)NCCSC(CC(=O)c1ccccc1I)C(=O)O (stereo partly drawn)
- IC50 [5]: 421 nM

Compound: CC(C)(COP(=O)(O)OP(=O)(O)OC[C@H]1O[C@@H](n2cnc3c(N)ncnc32)[C@H](O)[C@@H]1OP(=O)(O)O)[C@@H](O)C(=O)NCCC(=O)NCCSC(CC(=O)c1ccc(Cl)cc1Cl)C(=O)O (stereo partly drawn)
- Ki [7]: 286 nM
- IC50 [5]: 106 nM
- Ki [8]: 49 nM

Compound: C[C@H](NC(CC(=O)c1ccc(F)cc1)C(=O)O)c1ccccc1 (stereo partly drawn)
- IC50 [3]: 14400 nM
- half-life [4]: 12.2 h
- IC50 [5]: > 120000 nM
- MIC [6]: 12.5 µg/mL (≈ 39.6 µM)

Compound: COc1ccccc1C(=O)CC(N[C@@H](C)c1ccccc1)C(=O)O (stereo partly drawn)
- IC50 [3]: > 120000 nM
- half-life [4]: 11.6 h
- IC50 [5]: > 120000 nM
- MIC [6]: 12.5 µg/mL (≈ 38.2 µM)

Compound: C[C@H](SC(CC(=O)c1ccc(Cl)cc1)C(=O)O)c1ccccc1 (stereo partly drawn)
- inhibition [1]: inactive
- Stability [2]: Stable

Compound: CC(C)(COP(=O)(O)OP(=O)(O)OC[C@H]1O[C@@H](n2cnc3c(N)ncnc32)[C@H](O)[C@@H]1OP(=O)(O)O)[C@@H](O)C(=O)NCCC(=O)NCCSC(CC(=O)c1ccc(Cl)cc1)C(=O)O (stereo partly drawn)
- Ki [7]: 1630 nM
- IC50 [5]: 468 nM
- Ki [8]: 350 nM

Compound: C[C@H](NC(CC(=O)c1ccccc1Cl)C(=O)O)c1ccccc1 (stereo partly drawn)
- IC50 [3]: 8400 nM
- half-life [4]: 0.4 h
- IC50 [5]: > 120000 nM
- MIC [6]: 50 µg/mL (≈ 151 µM)

Compound: COc1ccccc1C(=O)CC(SCCNC(=O)CCNC(=O)[C@H](O)C(C)(C)COP(=O)(O)OP(=O)(O)OC[C@H]1O[C@@H](n2cnc3c(N)ncnc32)[C@H](O)[C@@H]1OP(=O)(O)O)C(=O)O (stereo partly drawn)
- IC50 [5]: 12100 nM

Compound: CC(C)(COP(=O)(O)OP(=O)(O)OC[C@H]1O[C@@H](n2cnc3c(N)ncnc32)[C@H](O)[C@@H]1OP(=O)(O)O)[C@@H](O)C(=O)NCCC(=O)NCCSC(CC(=O)c1ccccc1[N+](=O)[O-])C(=O)O (stereo partly drawn)
- IC50 [5]: 154 nM

Compound: C[C@H](NC(CC(=O)c1ccc(Cl)cc1)C(=O)O)c1ccccc1 (stereo partly drawn)
- IC50 [3]: 11700 nM
- half-life [4]: 6.8 h
- IC50 [5]: > 120000 nM
- MIC [6]: 50 µg/mL (≈ 151 µM)

Compound: COc1ccc(C(=O)CC(SCCNC(=O)CCNC(=O)[C@H](O)C(C)(C)COP(=O)(O)OP(=O)(O)OC[C@H]2O[C@@H](n3cnc4c(N)ncnc43)[C@H](O)[C@@H]2OP(=O)(O)O)C(=O)O)cc1 (stereo partly drawn)
- IC50 [5]: 33500 nM

Compound: CC(C)(COP(=O)(O)OP(=O)(O)OC[C@H]1O[C@@H](n2cnc3c(N)ncnc32)[C@H](O)[C@@H]1OP(=O)(O)O)[C@@H](O)C(=O)NCCC(=O)NCCSC(CC(=O)c1ccccc1Br)C(=O)O (stereo partly drawn)
- IC50 [5]: 135 nM

Compound: C[C@H](NC(CC(=O)c1ccccc1)C(=O)O)c1ccccc1 (stereo partly drawn)
- IC50 [3]: 52700 nM
- half-life [4]: 11.6 h
- IC50 [5]: > 120000 nM
- MIC [6]: 6.25 µg/mL (≈ 21 µM)

Compound: COC(=O)/C=C/C(=O)c1ccc(Cl)cc1
- Selectivity Index [9]: >20
- MIC [10]: 1.5 µg/mL (≈ 6.68 µM)
- MIC [6]: 0.64 µg/mL (≈ 2.85 µM)

Compound: C[C@H](NC(C(=O)O)C(C)(C)C(=O)c1ccccc1)c1ccccc1 (stereo partly drawn)
- inhibition [1]: inactive
- Stability [2]: Stable

Compound: C[C@H](NC(CC(O)c1ccc(Cl)cc1)C(=O)O)c1ccccc1 (stereo partly drawn)
- inhibition [1]: inactive
- Stability [2]: Stable

Compound: CC(C)(COP(=O)(O)OP(=O)(O)OC[C@H]1O[C@@H](n2cnc3c(N)ncnc32)[C@H](O)[C@@H]1OP(=O)(O)O)[C@@H](O)C(=O)NCCC(=O)NCCSC(=O)CCC(=O)c1ccc(Cl)cc1Cl
- IC50 [5]: 2200 nM

Compound: COC(=O)/C=C/C(=O)c1ccc(F)cc1
- Selectivity Index [9]: >20
- MIC [6]: 0.64 µg/mL (≈ 3.07 µM)

Compound: [2H]C([2H])(C(=O)c1ccccc1Cl)C(N[C@@H](C)c1ccccc1)C(=O)O (stereo partly drawn)
- Stability [2]: Stable

Compound: CC(C)(COP(=O)(O)OP(=O)(O)OC[C@H]1O[C@@H](n2cnc3c(N)ncnc32)[C@H](O)[C@@H]1OP(=O)(O)O)[C@@H](O)C(=O)NCCC(=O)NCCSCCC(=O)c1ccc(Cl)cc1Cl
- IC50 [5]: > 400000 nM

Compound: CC(C)(COP(=O)(O)OP(=O)(O)OC[C@H]1O[C@@H](n2cnc3c(N)ncnc32)[C@H](O)[C@@H]1OP(=O)(O)O)[C@@H](O)C(=O)NCCC(=O)NCCSC(CC(=O)c1cccc(Cl)c1)C(=O)O (stereo partly drawn)
- IC50 [5]: 14100 nM

Compound: O=C(O)/C=C/C(=O)c1ccc(Cl)cc1
- MIC [6]: 25 µg/mL (≈ 119 µM)

Compound: CC(C)(COP(=O)(O)OP(=O)(O)OC[C@H]1O[C@@H](n2cnc3c(N)ncnc32)[C@H](O)[C@@H]1OP(=O)(O)O)[C@@H](O)C(=O)NCCC(=O)NCCSC(CC(=O)c1ccccc1Cl)C(=O)O (stereo partly drawn)
- Ki [7]: 792 nM
- IC50 [5]: 103 nM
- Ki [8]: 97 nM

Compound: CC(C)(COP(=O)(O)OP(=O)(O)OC[C@H]1O[C@@H](n2cnc3c(N)ncnc32)[C@H](O)[C@@H]1OP(=O)(O)O)[C@@H](O)C(=O)NCCC(=O)NCCSC(CC(=O)c1ccccc1F)C(=O)O (stereo partly drawn)
- IC50 [5]: 204 nM
